Results published in patent US9296698B2, “Amino heteroaryl compounds as beta-secretase modulators and methods of use” (Amgen Inc., priority 2009, dated 2016).
Like-named read-outs stand apart in the source and are kept apart here.

Assays:
[1] = test system: Aβ40 in conditioned medium of cells stably expressing Amyloid Precursor Protein (APP); assay: In vitro BACE cell-based assay (HEK cell assay), Aβ40 sandwich ELISA; conditions: IC50 range symbols, Table 1, Aβ40, 24 h incubation, read-out: HEK cell assay
Procedure: In Vitro BACE Cell-Based Assay:
The cell-based assay measures inhibition or reduction of Aβ40 in conditioned medium of test compound treated cells expressing amyloid precursor protein.
Cells stably expressing Amyloid Precursor Protein (APP) were plated at a density of 40K cells/well in 96 well plates (Costar). The cells were cultivated for 24 hours at 37° C. and 5% CO2 in DMEM supplemented with 10% FBS. The test compounds were then added to cells in 10-point dose response concentrations with the starting concentration being either 100 μM or 10 μM. The compounds were diluted from stock solutions in DMSO and the final DMSO concentration of the test compounds on cells was 0.1%. After 24 h of incubation with the test compounds the supernatant conditioned media was collected and the Aβ 40 levels were determined using a sandwich ELISA. The IC50 of the compound was calculated from the percent of control or percent inhibition of Aβ 40 as a function of the concentration of the test compound.
The sandwich ELISA to detect Aβ 40 was performed in 96 well microtiter plates, which were pre-treated with goat anti-rabbit IgG (Pierce). The capture and detecting antibody pair that were used to detect Aβ 40 from cell supernatants were affinity purified pAb40 (Biosource) and biotinylated 6E10 (Signet Labs Inc.), respectively. The optimal concentration for the pAb40 antibody was 3 μg/ml in Superblock/TBS (Pierce) that was supplemented with 0.05% Tween 20 (Sigma).
Cellular supernatants were incubated with the capture antibody for 3 h at 4° C., followed by 3 wash steps in TBS-tween (0.05%). The detecting antibody incubation was for 2 h at 4° C., again followed by the wash steps as described previously. The final readout of the ELISA is Time-Resolved Fluorescence (counts per minute) using Delfia reagents Streptavidin-Europium and Enhancement solutions (Perkin Elmer) and the Victor 2 multilabel counter (Perkin Elmer).

[2] = target: BACE 1 (Beta Secretase enzyme) (Homo sapiens, UniProt P56817); assay: In vitro enzymatic BACE FRET assay; assay type: biochemical; conditions: IC50 range symbols, Table 1; read-out: BACE 1 FRET assay
Procedure: In Vitro Enzymatic BACE FRET (Fluorescence Resonance Energy Transfer) Assay (Enzyme Assay Data in Table 1)
The assay buffer used in this screen is 0.05 M acetate, pH 4.2, 10% DMSO final, 100 uM genapol (which is a nonionic detergent, below its Critical Micelle Concentration). […] The assay is effectively started by the addition of FRET substrate (50 nM) and the combination is incubated for one hour. The FRET assay is terminated with by addition of Tris buffer, which raises the pH to neutrality, and the fluorescence is determined. The FRET substrate is a peptide with commercially available fluorophore and quencher, on opposite sides of the BACE cleavage site.

BACE 1 (Beta Secretase enzyme), sequence (P56817 46-501, species assumed): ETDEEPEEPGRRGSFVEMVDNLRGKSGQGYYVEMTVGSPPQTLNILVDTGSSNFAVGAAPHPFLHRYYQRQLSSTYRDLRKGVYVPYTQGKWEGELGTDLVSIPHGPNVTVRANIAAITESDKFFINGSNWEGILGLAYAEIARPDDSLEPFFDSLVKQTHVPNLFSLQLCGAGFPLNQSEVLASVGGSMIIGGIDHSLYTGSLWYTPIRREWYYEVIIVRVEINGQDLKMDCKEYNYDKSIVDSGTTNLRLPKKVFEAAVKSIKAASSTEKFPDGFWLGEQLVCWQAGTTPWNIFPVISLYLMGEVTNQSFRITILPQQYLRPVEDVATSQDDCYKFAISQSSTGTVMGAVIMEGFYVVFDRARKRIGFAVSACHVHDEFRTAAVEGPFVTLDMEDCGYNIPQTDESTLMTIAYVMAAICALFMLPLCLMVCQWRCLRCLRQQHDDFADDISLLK

Compound | IC50 ([1]; Homo sapiens, HEK293, 24 h) [nM] | IC50 [2] [nM] | IC50 [1] [nM]
Cc1ccccc1-c1ccc2nc(N)c(CCC(=O)NCCC3CC3)cc2c1 [Example 115, 3-(2-amino-6-o-tolylquinolin-3-yl)-N-(2-cyclopropylethyl)propanamide] | 1000 to 5000 | < 500 | –
COc1ccccc1-c1ccc2nc(N)c(CCC(=O)NCC3CCCCC3)cc2c1 [Example 44, 3-(2-amino-6-(2-methoxyphenyl)quinolin-3-yl)-N-(cyclohexylmethyl)propanamide] | 1000 to 5000 | < 500 | –
CC(Cc1cc2cc(-c3cccc(Cl)c3Cl)ccc2nc1N)C(=O)NC1CCOC(C)(C)C1 (centres unmarked) [Example 159, 3-(2-amino-6-(2,3-dichlorophenyl)quinolin-3-yl)-N-(2,2-dimethyltetrahydro-2H-pyran-4-yl)-2-methylpropanamide] | < 500 | < 500 | –
Cc1ncccc1-c1ccc2nc(N)c(CCC(=O)NCC3CCCCC3)cc2c1 [Example 38, 3-(2-amino-6-(2-methylpyridin-3-yl)quinolin-3-yl)-N-(cyclohexylmethyl)propanamide] | > 5000 | 500 to 1000 | –
C[C@H](Cc1cc2cc(-c3ncccc3Cl)ccc2nc1N)C(=O)NCCC(C)(C)C [Example 128, (R)-3-(2-amino-6-(3-chloropyridin-2-yl)quinolin-3-yl)-N-(3,3-dimethylbutyl)-2-methylpropanamide] | < 500 | – | –
Cc1ccccc1-c1ccc2nc(N)c(C[C@@H](C)C(=O)NC3CCOC(C)(C)C3)cc2c1 (stereo partly drawn) [Example 164, (2R)-3-(2-amino-6-o-tolylquinolin-3-yl)-N-(2,2-dimethyltetrahydro-2H-pyran-4-yl)-2-methylpropanamide] | < 500 | – | –
3-(3-amino-7-o-tolylnaphthalen-2-yl)-N-(2-methoxybutyl)propanamide [Example 26] | – | < 500 | 1000 to 5000
CC(Cc1cc2cc(-c3ccccn3)ccc2nc1N)C(=O)NCCC(C)(C)C (centres unmarked) [Example 122, 3-(2-amino-6-(pyridin-2-yl)quinolin-3-yl)-N-(3,3-dimethylbutyl)-2-methylpropanamide] | 500 to 1000 | < 500 | –
Cc1ccccc1-c1ccc2nc(N)c(C[C@@H](C)C(=O)NC3CCOC(C)C3)cc2c1 (stereo partly drawn) [Example 158, (2R)-3-(2-amino-6-o-tolylquinolin-3-yl)-2-methyl-N-(2-methyltetrahydro-2H-pyran-4-yl)propanamide] | < 500 | < 500 | –
3-(3-amino-7-o-tolylnaphthalen-2-yl)-N-(2-fluorophenyl)propanamide [Example 28] | – | 500 to 1000 | 1000 to 5000
CC(Cc1cc2cc(-c3ncccc3CCN3CCOCC3)ccc2nc1N)C(=O)NCCC(C)(C)C (centres unmarked) [Example 123, 3-(2-amino-6-(3-(2-morpholinoethyl)pyridin-2-yl)quinolin-3-yl)-N-(3,3-dimethylbutyl)-2-methylpropanamide] | < 500 | < 500 | –
3-(3-amino-7-o-tolylnaphthalen-2-yl)-N-(1-(pyridin-2-yl)ethyl)propanamide [Example 56] | – | < 500 | 1000 to 5000
CNC(=O)C(C)Cc1cc2cc(-c3ccccc3C(=O)C3CCCCC3)ccc2nc1N (centres unmarked) [Example 157, 3-(2-amino-6-(2-(cyclohexanecarbonyl)phenyl)quinolin-3-yl)-N,2-dimethylpropanamide] | 500 to 1000 | < 500 | –
3-(3-amino-7-o-tolylnaphthalen-2-yl)-N-(1-(2-methoxyphenyl)ethyl)-2-methylpropanamide [Example 70] | – | < 500 | 1000 to 5000
Cc1cccnc1-c1ccc2nc(N)c(CCC(=O)N[C@H](C)c3cccnc3)cc2c1 [Example 132, (R)-3-(2-amino-6-(3-methylpyridin-2-yl)quinolin-3-yl)-N-(1-(pyridin-3-yl)ethyl)propanamide] | > 5000 | 1000 to 5000 | –
3-(2-amino-6-o-tolylquinolin-3-yl)-N-(tetrahydro-2H-pyran-4-yl)propanamide [Example 16] | – | 1000 to 5000 | 1000 to 5000
CC(Cc1cc2cc(-c3ncccc3Cl)ccc2nc1N)C(=O)NCCC(F)(F)F (centres unmarked) [Example 116, 3-(2-amino-6-(3-chloropyridin-2-yl)quinolin-3-yl)-2-methyl-N-(3,3,3-trifluoropropyl)propanamide] | > 5000 | 1000 to 5000 | –

Compound | IC50 ([1]; Homo sapiens, HEK293, 24 h) [nM] | IC50 [2] [nM] | IC50 [1] [nM]
Cc1ccccc1-c1ccc2nc(N)c(CCC(=O)N(C)C3CCCCC3)cc2c1 [Example 1, 3-(2-amino-6-o-tolylquinolin-3-yl)-N-cyclohexyl-N-methylpropanamide] | < 500 | – | –
Cc1ccccc1-c1ccc2nc(N)c(CCC(=O)NCC3(C)COC3)cc2c1 [Example 58, 3-(2-amino-6-o-tolylquinolin-3-yl)-N-((3-methyloxetan-3-yl)methyl)propanamide] | > 5000 | 1000 to 5000 | –
Cc1cccnc1-c1ccc2nc(N)c(CCC(=O)N[C@H](C)c3ccccc3OC(F)F)cc2c1 [Example 133, (R)-3-(2-amino-6-(3-methylpyridin-2-yl)quinolin-3-yl)-N-(1-(2-(difluoromethoxy)phenyl)ethyl)propanamide] | > 5000 | 1000 to 5000 | –
Cc1ccccc1-c1ccc2nc(N)c(CC(C)C(=O)NCC3CCCCC3)cc2c1 (centres unmarked) [Example 22, 3-(2-amino-6-o-tolylquinolin-3-yl)-N-(cyclohexylmethyl)-2-methylpropanamide] | < 500 | – | –
Cc1ccccc1-c1ccc2nc(N)c(CCC(=O)NCC3CCCCC3)cc2c1 [Example 14, 3-(2-amino-6-o-tolylquinolin-3-yl)-N-(cyclohexylmethyl)propanamide] | 500 to 1000 | – | –
CCC(Cc1cc2cc(-c3ccccc3C)ccc2nc1N)C(=O)NCC1CCCCC1 (centres unmarked) [Example 60, 2-((2-amino-6-o-tolylquinolin-3-yl)methyl)-N-(cyclohexylmethyl)butanamide] | > 5000 | – | –
Cc1ccccc1-c1ccc2nc(N)c(CC(C)C(=O)NCc3ccccc3)cc2c1 (centres unmarked) [Example 52, 3-(2-amino-6-o-tolylquinolin-3-yl)-N-benzyl-2-methylpropanamide] | 1000 to 5000 | – | –
Cc1ccccc1-c1ccc2nc(N)c(CC(C)C(=O)NCCC(C)(C)C)cc2c1 (centres unmarked) [Example 90, 3-(2-amino-6-o-tolylquinolin-3-yl)-N-(3,3-dimethylbutyl)-2-methylpropanamide] | < 500 | – | –
Cc1cccnc1-c1ccc2nc(N)c(CC(C)C(=O)NCCC(C)(C)C)cc2c1 (centres unmarked) [Example 5, 3-(2-amino-6-(3-methylpyridin-2-yl)quinolin-3-yl)-N-(3,3-dimethylbutyl)-2-methylpropanamide] | 500 to 1000 | – | –
Cc1ccccc1-c1ccc2nc(N)c(C[C@@H](C)C(=O)NCc3cnccn3)cc2c1 [Example 80, (R)-3-(2-amino-6-o-tolylquinolin-3-yl)-2-methyl-N-(pyrazin-2-ylmethyl)propanamide] | < 500 | – | –
Cc1ccccc1-c1ccc2nc(N)c(CC(C(=O)NCC3CCCCC3)C(C)C)cc2c1 (centres unmarked) [Example 66, 2-((2-amino-6-o-tolylquinolin-3-yl)methyl)-N-(cyclohexylmethyl)-3-methylbutanamide] | 1000 to 5000 | – | –
Cc1ccccc1-c1ccc2nc(N)c(C[C@@H](C)C(=O)NCC3CCOCC3)cc2c1 [Example 87, (R)-3-(2-amino-6-o-tolylquinolin-3-yl)-2-methyl-N-((tetrahydro-2H-pyran-4-yl)methyl)propanamide] | < 500 | – | –
Cc1cccnc1-c1ccc2nc(N)c(C[C@@H](C)C(=O)NCCC(C)(C)C)cc2c1 [Example 126, (R)-3-(2-amino-6-(3-methylpyridin-2-yl)quinolin-3-yl)-N-(3,3-dimethylbutyl)-2-methylpropanamide] | < 500 | – | –
Cc1ccccc1-c1ccc2nc(N)c(CC(C)C(=O)NCc3cncs3)cc2c1 (centres unmarked) [Example 93, 3-(2-amino-6-o-tolylquinolin-3-yl)-2-methyl-N-(thiazol-5-ylmethyl)propanamide] | < 500 | – | –
CC(=O)c1ccccc1-c1ccc2nc(N)c(CC(C)C(=O)NCCC(C)(C)C)cc2c1 (centres unmarked) [Example 156, 3-(6-(2-acetylphenyl)-2-aminoquinolin-3-yl)-N-(3,3-dimethylbutyl)-2-methylpropanamide] | < 500 | – | –
Cc1ccccc1-c1ccc2nc(N)c(CCC(=O)NC3CCCCC3)cc2c1 [Example 13, 3-(2-amino-6-o-tolylquinolin-3-yl)-N-cyclohexylpropanamide] | 500 to 1000 | – | –
